According to PubChem BioAssay (NCI):
“And” between values parts separate entries of the source, which are not always exact repeats. Identical values can stand only once.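 Where inhibition never reached the appropriate level, the endpoint shown equals the highest concentration tested. Otherwise, values were interpolated linearly from a five-concentration, 48-hour dose response in 96-well plates. Abbreviation: GI50, concentration required for 50% inhibition of growth. At the TGI there is no net growth.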

What was measured:
Assay in all cases: NCI tumour cell line growth inhibition, 48 h
786-0 renal = test system: 786-0 renal
A498 renal = test system: A498 renal
A549 NSCLC = test system: A549 NSCLC
ACHN renal = test system: ACHN renal
BT-549 breast = test system: BT-549 breast
CCRF-CEM leukemia = test system: CCRF-CEM leukemia
COLO 205 colon = test system: COLO 205 colon
DLD-1 colon = test system: DLD-1 colon
DMS 114 small cell lung = test system: DMS 114 small cell lung
DMS 273 small cell lung = test system: DMS 273 small cell lung
DU-145 prostate = test system: DU-145 prostate
EKVX NSCLC = test system: EKVX NSCLC
HCC-2998 colon = test system: HCC-2998 colon
HCT-116 colon = test system: HCT-116 colon
HCT-15 colon = test system: HCT-15 colon
HL-60(TB) leukemia = test system: HL-60(TB) leukemia
HOP-18 NSCLC = test system: HOP-18 NSCLC
HOP-62 NSCLC = test system: HOP-62 NSCLC
HOP-92 NSCLC = test system: HOP-92 NSCLC
HS 578T breast = test system: HS 578T breast
HT29 colon = test system: HT29 colon
IGROV1 ovarian = test system: IGROV1 ovarian
K-562 leukemia = test system: K-562 leukemia
KM12 colon = test system: KM12 colon
KM20L2 colon = test system: KM20L2 colon
LOX IMVI melanoma = test system: LOX IMVI melanoma
LXFL 529 NSCLC = test system: LXFL 529 NSCLC
M14 melanoma = test system: M14 melanoma
M19-MEL melanoma = test system: M19-MEL melanoma
MALME-3M melanoma = test system: MALME-3M melanoma
MCF7 breast = test system: MCF7 breast
MDA-MB-231 breast = test system: MDA-MB-231 breast
MDA-MB-435 = test system: MDA-MB-435
MDA-N = test system: MDA-N
MOLT-4 leukemia = test system: MOLT-4 leukemia
NCI-H226 lung = test system: NCI-H226 lung
NCI-H23 lung = test system: NCI-H23 lung
NCI-H460 lung = test system: NCI-H460 lung
NCI-H522 lung = test system: NCI-H522 lung
NCI/ADR-RES ovarian = test system: NCI/ADR-RES ovarian
OVCAR-3 ovarian = test system: OVCAR-3 ovarian
OVCAR-4 ovarian = test system: OVCAR-4 ovarian
OVCAR-5 ovarian = test system: OVCAR-5 ovarian
OVCAR-8 ovarian = test system: OVCAR-8 ovarian
PC-3 prostate = test system: PC-3 prostate
RPMI-8226 leukemia = test system: RPMI-8226 leukemia
RXF 393 renal = test system: RXF 393 renal
SF-268 CNS = test system: SF-268 CNS
SF-295 CNS = test system: SF-295 CNS
SF-539 CNS = test system: SF-539 CNS
SK-MEL-2 melanoma = test system: SK-MEL-2 melanoma
SK-MEL-28 melanoma = test system: SK-MEL-28 melanoma
SK-MEL-5 melanoma = test system: SK-MEL-5 melanoma
SK-OV-3 ovarian = test system: SK-OV-3 ovarian
SN12C renal = test system: SN12C renal
SNB-19 CNS = test system: SNB-19 CNS
SNB-75 CNS = test system: SNB-75 CNS
SNB-78 CNS = test system: SNB-78 CNS
SR leukemia = test system: SR leukemia
SW-620 colon = test system: SW-620 colon
T-47D breast = test system: T-47D breast
TK-10 renal = test system: TK-10 renal
U251 CNS = test system: U251 CNS
UACC-257 melanoma = test system: UACC-257 melanoma
UACC-62 melanoma = test system: UACC-62 melanoma
UO-31 renal = test system: UO-31 renal
XF 498 CNS = test system: XF 498 CNS

## O=C1c2cccc(NCCCNCCO)c2C(=O)c2cccc(NCCCNCCO)c21
786-0 renal
  TGI: 10.1 µM and 5.84 µM
A498 renal
  TGI: 4.66 µM and 7.58 µM
A549 NSCLC
  TGI: 7.34 µM and 4.62 µM
ACHN renal
  TGI: 5.71 µM and 10.4 µM
BT-549 breast
  TGI: 4.21 µM
CCRF-CEM leukemia
  TGI: 7.09 µM and 6.97 µM
COLO 205 colon
  TGI: 2.67 µM and 3.78 µM
DLD-1 colon
  TGI: 12 µM and 6.25 µM
DMS 114 small cell lung
  GI50: 0.476 µM and 1.24 µM
  TGI: 1.92 µM and 4.77 µM
DMS 273 small cell lung
  TGI: 3.98 µM and 5.13 µM
DU-145 prostate
  TGI: 7.44 µM
EKVX NSCLC
  TGI: 6.24 µM and 9.38 µM
HCC-2998 colon
  TGI: 2.4 µM and 2.13 µM
HCT-116 colon
  TGI: 4.9 µM
HCT-15 colon
  TGI: 19.8 µM and 23.3 µM
HL-60(TB) leukemia
  TGI: 3.86 µM and 6.02 µM
HOP-18 NSCLC
  TGI: 7.69 µM
HOP-62 NSCLC
  TGI: 6.38 µM and 6.71 µM
HOP-92 NSCLC
  TGI: 4.08 µM
HS 578T breast
  TGI: 2.65 µM
HT29 colon
  TGI: 4.43 µM and 5.38 µM
IGROV1 ovarian
  TGI: 8.22 µM and 9.3 µM
K-562 leukemia
  GI50: 3.69 µM and 1.05 µM
  TGI: 18.8 µM and 8.27 µM
KM12 colon
  TGI: 4.43 µM and 5.84 µM
KM20L2 colon
  TGI: 6.72 µM and 9.95 µM
LOX IMVI melanoma
  TGI: 4.79 µM and 6.13 µM
LXFL 529 NSCLC
  GI50: 0.844 µM and 2.22 µM
  TGI: 2.95 µM and 10.1 µM
M14 melanoma
  TGI: 4.3 µM and 8.78 µM
M19-MEL melanoma
  GI50: 0.712 µM and 1.8 µM
  TGI: 2.24 µM and 3.72 µM
MALME-3M melanoma
  GI50: 2.06 µM and 4.18 µM
  TGI: 3.94 µM and 10.4 µM
MCF7 breast
  TGI: 1.41 µM
MDA-MB-231 breast
  TGI: 3.37 µM
MDA-MB-435
  TGI: 3.06 µM
MDA-N
  TGI: 3.23 µM
MOLT-4 leukemia
  TGI: 13.1 µM and 8.29 µM
NCI-H226 lung
  GI50: 1.93 µM and 0.729 µM
  TGI: 5.11 µM and 2.99 µM
NCI-H23 lung
  TGI: 6.08 µM and 4.38 µM
NCI-H460 lung
  TGI: 4 µM and 4.23 µM
NCI-H522 lung
  TGI: 1.6 µM
NCI/ADR-RES ovarian
  TGI: 28.6 µM
OVCAR-3 ovarian
  TGI: 5.65 µM and 9.94 µM
OVCAR-4 ovarian
  GI50: 0.747 µM and 2.55 µM
  TGI: 2.59 µM and 6.09 µM
OVCAR-5 ovarian
  TGI: 6.28 µM and 6.41 µM
OVCAR-8 ovarian
  TGI: 4.57 µM and 5.66 µM
PC-3 prostate
  TGI: 5.84 µM
RPMI-8226 leukemia
  TGI: 5.58 µM and 6.85 µM
RXF 393 renal
  TGI: 5.54 µM and 5.82 µM
SF-268 CNS
  GI50: 0.58 µM and 1.5 µM
  TGI: 2.82 µM and 4.69 µM
SF-295 CNS
  GI50: 6.32 µM and 2.35 µM
  TGI: 18.6 µM and 7.37 µM
SF-539 CNS
  TGI: 4.13 µM and 2.84 µM
SK-MEL-2 melanoma
  TGI: 3.47 µM and 3.42 µM
SK-MEL-28 melanoma
  TGI: 3.99 µM and 3.84 µM
SK-MEL-5 melanoma
  TGI: 3.31 µM and 4.4 µM
SK-OV-3 ovarian
  TGI: 7.23 µM
SN12C renal
  TGI: 6 µM and 5.31 µM
SNB-19 CNS
  TGI: 5.58 µM
SNB-75 CNS
  GI50: 0.912 µM and 2.44 µM
  TGI: 2.58 µM and 6.58 µM
SNB-78 CNS
  TGI: 6.7 µM and 17.1 µM
SR leukemia
  GI50: 2.56 µM and 0.532 µM
  TGI: 6.25 µM and 7.33 µM
SW-620 colon
  TGI: 3.41 µM and 7.57 µM
T-47D breast
  TGI: 8.89 µM
TK-10 renal
  TGI: 8.6 µM and 13.4 µM
U251 CNS
  GI50: 0.536 µM and 1.4 µM
  TGI: 2.13 µM and 4.46 µM
UACC-257 melanoma
  TGI: 11.2 µM and 14 µM
UACC-62 melanoma
  TGI: 3.25 µM and 4.33 µM
UO-31 renal
  TGI: 22.2 µM and 21.4 µM
XF 498 CNS
  GI50: 0.827 µM and 2.41 µM
  TGI: 2.4 µM and 7.26 µM
